Experimental data as given in patent US12280121B2, “Immunoconjugates and methods” (Immunome, Inc., priority 2021, dated 2025).
Counter-ions that a name gives are not always drawn. Like-named read-outs stand apart in the source and are kept apart here.

What was measured:
Jeko-1 = assay: CTG assay (CellTiter-Glo cell viability), Jeko-1, payload compounds; type: cell-based; details: Homo sapiens
Source text: (§1) The CTG assay is a method of determining the number of viable cells in culture based on quantitation of the ATP present, an indicator of metabolically active cells. The cell assay requires the addition of a single reagent, Cell Titer Glo, in which cells are lysed and generation of a luminescent signal is produced. The luminescent signal is proportional to the amount of ATP present. The amount of ATP is directly proportional to the number of cells present in culture. For our assay, cells were ensured to be in log-phase for either Jeko-1 or MDA-MB-468. Cells were transferred to 96 wells and treated with compounds in three-fold serial dilution starting from 1 μM to 0.0000508 μM (10 points dilution), for 72 h. Cell viability was analyzed with CellTiter-Glo® Luminescent Cell Viability Assay (Promega) following manufactures' instruction. Percentage of viable cells in each compound concentration was determined by normalizing with the luminescence of vehicle control and plotted into percentage of viability versus dose response curve by nonlinear fit in GraphPad Prism software.

[1] = Human liver microsome clearance (HLM CL); type: in vitro ADME
Experimental: Working solution was prepared by adding 5 μL of compound and control stock solution (10 mM in dimethyl sulfoxide, DMSO) to 495 μL of acetonitrile (ACN) (intermediate solution concentration: 100 μM, 99% CAN and 1% DMSO. The appropriate concentrations of microsome working solutions were prepared in 100 mM potassium phosphate buffer. After reaction plates containing mixtures of compound and microsomes were pre-incubated at 37° C. for 10 min, […] of 2 mM of NADPH and 2 mM of MgCl2 solution was added to start the reaction. The final concentrations of incubation medium were as follows: microsome—0.5 mg protein/mL, test compound/control […], NADPH—1 mM, MgCl2 —1 mM, acetonitrile 0.99%, DMSO 0.01%. Incubations were performed at 37° C. for 60 min. Samples were taken out at TO, T5, T15, T30, T45 and T60, which was added intermediately to the ice-cold stop solution (acetonitrile with 200 ng/mL of tobutamide and labetalol as internal standard) (125 μl), shaken for 10 min, centrifuged at 4000 rpm for 20 min at 4° C. Analytical plates were analyzed by LCMS.
(§2) Human liver microsome clearance assay assess metabolism by the cytochrome P450 system (phase I enzymes). These enzymes oxidize substrates by incorporating oxygen atoms into hydrocarbons, thus causing the introduction of hydroxyl groups, or N- O- and S-dealkylation of substrates and forming more polar products easier to be cleared. Human hepatocyte clearance assay measures more broadly the overall cellular metabolism of the test compound (phase I and phase II enzyme pathways). Phase II enzymes catalyze the conjugation reaction of xenobiotic metabolites and charged species, such as glutathione, sulfate, glycine, or glucuronic acid to form even more polar compounds for easier clearance.

[2] = Human hepatocyte clearance (HHEP CL); type: in vitro ADME; parameters: CLint scaled / half-life: dose or concentration left out as unconfirmed; details: both sexes
Experimental: Suspensions of human hepatocytes (from 10 mixed gender human donors, final concentration 0.5×10^6 cell/mL) in Williams' E medium were incubated for 90 min with a test compound (0.90% acetonitrile and 0.10% DMSO, final concentration […]) and positive controls (7-Ethoxycoumarin, 7-Hydroxycoumarin, 0.90% acetonitrile and 0.10% DMSO, final concentration […]), with constant shaking at about 600 rpm at 37° C. in an incubator at 5% CO2 and 95% humidity. The total volume of incubation was 200 μl. A sample ([…]) was taken out at TO, 15, 30, 60 and 90 min, which was added intermediately to the ice-cold stop solution (acetonitrile with 200 ng/mL of tobutamide and labetalol as internal standard) (125 μl), and vortexed at 500 rpm for 10 min, centrifuged at 3220×g for 20 min at 4° C. Analytical plates are sealed and stored at 4° C. until LCMS analysis. Viability of hepatocytes at pre-incubation was determined to be 84.5%.
as §2

[3] = PAMPA (Parallel Artificial Membrane Permeability Assay); type: physicochemical
Source text: PAMPA is a method which determines the permeability of substances from a donor compartment, through a lipid-infused artificial membrane into an acceptor compartment. See Ottaviani, G.; Martel, S.; Carrupt, P-A. “Parallel Artificial Membrane Permeability Assay: A New Membrane for the Fast Prediction of Passive Human Skin Permeability”, Journal of Medicinal Chemistry, 2006, 49 (13), 3948-3954). A multi-well microtitre plate is used for the donor and a membrane/acceptor compartment is placed on top; the whole assembly is commonly referred to as a “sandwich”. At the beginning of the test, the drug is added to the donor compartment, and the acceptor compartment is drug-free. After an incubation period which may include stirring, the sandwich is separated, and the amount of drug is measured in each compartment. Mass balance allows calculation of drug that remains in the membrane.
The PAMPA was performed by Pion Inc using the GIT-0 lipid and 5 μM donor solution in pH 5.0 and pH 7.4 PRISMA buffer (containing 0.05% DMSO). The higher PAMPA data has been associated with better bystander killing. (Ogitani Y.; Hagihara K.; Oitate, M.; Naito, H.; Agatsuma T. “Bystander killing effect of DS-8201a, a novel anti-human epidermal growth factor receptor 2 antibody-drug conjugate, in tumors with human epidermal growth factor receptor 2 heterogeneity” Cancer Science, 2016, 107 (7), 1039-1046).

MDA-MB-468 = assay: CTG assay (CellTiter-Glo cell viability), MDA-MB-468, payload compounds; type: cell-based; details: Homo sapiens
Source text: as §1

[4] = JeKo-1, 72 h, CellTiter-Glo, read-out: JeKo-1 IC50
[5] = MDA-MB-468, 72 h, CellTiter-Glo, read-out: MDA-MB-468 IC50
[6] = human liver microsomes 0.5 mg protein/mL, NADPH, 60 min, read-out: HLM Cl (human liver microsome clearance)

| Compound | IC50 (Jeko-1; [4]) [nM] | CLint scaled ([1]; human, microsomes) [mL/min/kg] | half-life ([1]; human, microsomes) [min] | CLint scaled ([2]; human, hepatocytes) [mL/min/kg] | half-life ([2]; human, hepatocytes) [min] | Papp at 5 μM ([3]; pH 5) [×10⁻⁶ cm/s] | Papp at 5 μM ([3]; pH 7.4) [×10⁻⁶ cm/s] | IC50 (MDA-MB-468; [5]) [nM] | PAMPA Pe (10^−6 cm/s) pH 5.0 ([3]; 5 μM, pH 5) | IC50 (Jeko-1; JeKo-1, 72 h, read-out: JeKo-1 IC50 (nM)) [nM] | CLint scaled [1, 6] [mL/min/kg] | CLint scaled ([2]; human hepatocytes in suspension, human hepatocytes, 90 min incubation, read-out: HHEP Cl (human hepatocytes intrinsic clearance)) [mL/min/kg] | Papp ([3]; pH 5) [×10⁻⁶ cm/s] | Papp ([3]; pH 7.4) [×10⁻⁶ cm/s] | IC50 (MDA-MB-468; MDA-MB-468, 72 h, read-out: MDA-MB-468 IC50 (nM)) [nM] | half-life ([1]; human liver microsomes 0.5 mg protein/mL, NADPH, 60 min, read-out: HLM (T1/2)) [min] | half-life ([2]; human hepatocytes, 90 min incubation, read-out: HHEP (T1/2)) [min] | CLint scaled ([2]; human hepatocytes, 90 min incubation, read-out: HHEP Cl (human hepatocytes intrinsic clearance)) [mL/min/kg] | Papp at 5 μM ([3]; pH 5.0 PRISMA buffer, GIT-0 lipid, 5 μM donor solution, read-out: PAMPA Pe pH 5.0) [×10⁻⁶ cm/s] | Papp at 5 μM ([3]; pH 7.4 PRISMA buffer, GIT-0 lipid, 5 μM donor solution, read-out: PAMPA Pe pH 7.4) [×10⁻⁶ cm/s] |
| --- | --- | --- | --- | --- | --- | --- | --- | --- | --- | --- | --- | --- | --- | --- | --- | --- | --- | --- | --- | --- |
| CC[C@@]1(O)C(=O)OCc2c1cc1n(c2=O)Cc2c-1nc1cc(F)c(C)c3c1c2[C@](C)(O)CC3 (single isomer, unassigned) [Compound 13-85] | 2.6 | 58.3 | 21 | 75.7 | 51 | 69.7 | 6 | 36.2 |  |  |  |  |  |  |  |  |  |  |  |  |
| CC[C@@]1(O)C(=O)OCc2c1cc1n(c2=O)Cc2c-1nc1cc(F)c(C)c3c1c2[C@](C)(OCCO)CC3 (single isomer, unassigned) [Compound 14-92] | 1.2 | 19.2 | 65 | 51.3 | 75.1 | 69.1 | 4.5 | 14.2 |  |  |  |  |  |  |  |  |  |  |  |  |
| CC[C@@]1(O)C(=O)OCc2c1cc1n(c2=O)Cc2c-1nc1cc(F)c(C)c3c1c2[C@@](C)(OCCO)CC3 (single isomer, unassigned) [Compound 14-91] | 1.4 | 46.5 | 26.8 | 63.4 | 60.8 | 67.8 | 5.6 | 17.6 |  |  |  |  |  |  |  |  |  |  |  |  |
| CC[C@@]1(O)C(=O)OCc2c1cc1n(c2=O)Cc2c-1nc1cc(F)c(C)c3c1c2[C@@H](O)CC3 (single isomer, unassigned) [Compound 3-35] | 0.46 | 20.2 | 61.8 | 50.4 | 76.5 | 66.1 | 11.1 | 4.7 |  |  |  |  |  |  |  |  |  |  |  |  |
| CC[C@@]1(O)C(=O)OCc2c1cc1n(c2=O)Cc2c-1nc1cc(F)c(C)c3c1c2[C@H](N)CCC3 (single isomer, unassigned) [Compound 7-60, methanesulfonate] | 2.1 | 40.8 | 30.6 | 64.5 | 59.7 |  |  | 14.9 |  |  |  |  |  |  |  |  |  |  |  |  |
| CC[C@@]1(O)C(=O)OCc2c1cc1n(c2=O)Cc2c-1nc1cc(F)c(C)c3c1c2[C@H](OCCO)CC3 (single isomer, unassigned) [Compound 5-47] | 1.5 | 17.3 | 72.2 | 53.7 | 71.7 |  | 11.6 | 6.3 | 76/.1 10^−6 cm/s |  |  |  |  |  |  |  |  |  |  |  |
| CC[C@@]1(O)C(=O)OCc2c1cc1n(c2=O)Cc2c-1nc1cc(F)c(C)c3c1c2[C@@](C)(N)CC3 (single isomer, unassigned) [Compound 8-71, hydrochloride] | 0.44 | 41.9 | 30 | 81.7 | 47 | 67.7 | 8.6 | 6.1 |  |  |  |  |  |  |  |  |  |  |  |  |
| CC[C@@]1(O)C(=O)OCc2c1cc1n(c2=O)Cc2c-1nc1cc(F)c(C)c3c1c2[C@@H](N)CC3.CS(=O)(=O)O [Exatecan, (1S,9S)-1-amino-9-ethyl-5-fluoro-9-hydroxy-4-methyl-2,3,12,15-tetrahydro-benzo[de]pyrano [3′,4′:6,7]indolizino[1,2-b]quinoline-10,13(1H,9H)-dione methanesulfonate, reference compound] |  |  | 106 |  | 65 |  |  |  |  | 0.59 | 11.7 | 59.3 | 37.2 | 5.7 | 6.2 |  |  |  |  |  |
| CC[C@@]1(O)C(=O)OCc2c1cc1n(c2=O)Cc2c-1nc1cc(F)c(C)c3c1c2[C@](C)(NC(=O)CO)CC3 [Compound 10-75, N-((1R,9S)-9-ethyl-5-fluoro-9-hydroxy-1,4-dimethyl-10,13-dioxo-1,2,3,9,10,12,13,15-octahydrobenzo[de]pyrano[3′,4′:6,7]indolizino[1,2-b]quino-lin-1-yl)-2-hydroxyacetamide] | 58.1 | 27.2 | 45.9 | 40.8 | 94.4 | 46.8 | 3.9 | 467 |  |  |  |  |  |  |  |  |  |  |  |  |
| CC[C@@]1(O)C(=O)OCc2c1cc1n(c2=O)Cc2c-1nc1cc(F)c(C)c3c1c2[C@@H](N)CCC3 (single isomer, unassigned) [Compound 7-59, methanesulfonate] | 2.9 | 33.7 | 37 | 69.4 | 55.5 |  |  | 14.8 |  |  |  |  |  |  |  |  |  |  |  |  |
| CC[C@@]1(O)C(=O)OCc2c1cc1n(c2=O)Cc2c-1nc1cc(F)c(C)c3c1c2[C@H](O)CC3 (single isomer, unassigned) [Compound 3-34] | 0.59 | 32.1 | 38.8 | 79.2 | 48.7 | 78.3 | 8.2 | 6 |  |  |  |  |  |  |  |  |  |  |  |  |
| CC[C@@]1(O)C(=O)OCc2c1cc1n(c2=O)Cc2c-1nc1cc(F)c(C)c3c1c2[C@@](C)(NCCO)CC3.Cl [Compound 16-95, (1S,9S)-9-ethyl-5-fluoro-9-hydroxy-1-((2-hydroxyethyl)amino)-1,4-dimethyl-2,3,12,15-tetrahydrobenzo[de]pyrano[3′,4′:6,7]indolizino[1,2-b]quinoline-10,13(1H,9H)-dione hydrochloride] | 1.3 |  |  |  |  |  |  | 13.7 |  |  | 25.4 |  |  |  |  | 49.1 | 130 | 29.6 | 63.1 | 5.5 |
